Measured values reported in patent US10479786B2, “Protein kinase inhibitors” (Princeton Drug Discovery Inc, priority 2016, dated 2019).

Columns and labels:
ABL(E255K) = molecular target: T1, ABL(E255K) (Homo sapiens, UniProt P00519, E255K); assay: Off-chip Mobility Shift Assay, kinase inhibition; type: biochemical; settings: recombinant ABL(E255K); for inhibition at 0.001 µM: at 1 nM; for inhibition at 0.01 µM: at 10 nM
T1 construct: purchased Carna Biosciences, Inc

DDR2 = molecular target: T2, DDR2 (Homo sapiens, UniProt Q16832); assay: Off-chip Mobility Shift Assay, kinase inhibition; type: biochemical; settings: recombinant DDR2; for inhibition at 0.01 µM: at 10 nM, read-out: inhibition
T2 construct: purchased Carna Biosciences, Inc
T2 sequence (Q16832 22-855): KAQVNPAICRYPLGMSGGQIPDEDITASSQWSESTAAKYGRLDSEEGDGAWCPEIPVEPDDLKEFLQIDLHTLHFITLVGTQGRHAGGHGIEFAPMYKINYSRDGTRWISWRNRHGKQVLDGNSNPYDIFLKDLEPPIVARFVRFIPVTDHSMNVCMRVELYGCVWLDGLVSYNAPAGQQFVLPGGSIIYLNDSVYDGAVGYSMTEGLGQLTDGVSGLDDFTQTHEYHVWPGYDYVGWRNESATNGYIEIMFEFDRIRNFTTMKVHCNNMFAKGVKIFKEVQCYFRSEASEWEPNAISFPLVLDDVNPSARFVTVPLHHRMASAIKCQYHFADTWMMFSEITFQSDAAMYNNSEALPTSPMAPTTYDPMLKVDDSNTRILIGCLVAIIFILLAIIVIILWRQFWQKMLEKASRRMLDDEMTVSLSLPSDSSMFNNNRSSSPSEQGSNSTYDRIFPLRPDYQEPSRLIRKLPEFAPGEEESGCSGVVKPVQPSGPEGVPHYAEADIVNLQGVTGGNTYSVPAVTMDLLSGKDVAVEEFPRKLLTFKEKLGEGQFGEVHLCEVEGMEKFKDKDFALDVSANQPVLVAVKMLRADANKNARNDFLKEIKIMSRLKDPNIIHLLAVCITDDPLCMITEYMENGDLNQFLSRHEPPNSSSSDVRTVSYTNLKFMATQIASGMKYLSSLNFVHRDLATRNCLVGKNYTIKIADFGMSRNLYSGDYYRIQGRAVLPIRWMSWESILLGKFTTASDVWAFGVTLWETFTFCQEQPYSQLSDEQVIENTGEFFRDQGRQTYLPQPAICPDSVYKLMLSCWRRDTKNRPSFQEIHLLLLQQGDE

FGR = molecular target: T3, FGR (Homo sapiens, UniProt P09769); assay: Off-chip Mobility Shift Assay, kinase inhibition; type: biochemical; settings: recombinant FGR; for inhibition at 0.001 µM: at 1 nM; for inhibition at 0.01 µM: at 10 nM, read-out: inhibition
T3 construct: purchased Carna Biosciences, Inc
T3 sequence (P09769 whole entry): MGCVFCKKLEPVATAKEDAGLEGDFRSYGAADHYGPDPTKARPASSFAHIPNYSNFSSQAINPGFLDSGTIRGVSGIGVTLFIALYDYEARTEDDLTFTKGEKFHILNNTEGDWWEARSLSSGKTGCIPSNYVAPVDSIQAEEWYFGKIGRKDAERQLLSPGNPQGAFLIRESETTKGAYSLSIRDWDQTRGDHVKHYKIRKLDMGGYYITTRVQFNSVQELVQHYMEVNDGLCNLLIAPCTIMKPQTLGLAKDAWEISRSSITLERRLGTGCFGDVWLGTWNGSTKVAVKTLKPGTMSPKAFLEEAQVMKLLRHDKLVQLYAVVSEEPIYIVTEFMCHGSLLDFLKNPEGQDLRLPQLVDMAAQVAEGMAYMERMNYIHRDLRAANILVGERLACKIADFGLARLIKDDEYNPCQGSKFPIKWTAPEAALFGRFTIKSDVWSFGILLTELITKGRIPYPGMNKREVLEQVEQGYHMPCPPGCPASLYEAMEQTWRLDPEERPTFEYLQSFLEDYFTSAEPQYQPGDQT

FRK = molecular target: T4, FRK (Homo sapiens, UniProt P42685); assay: Off-chip Mobility Shift Assay, kinase inhibition; type: biochemical; settings: recombinant FRK; for inhibition at 0.001 µM: at 1 nM; for inhibition at 0.01 µM: at 10 nM
T4 construct: purchased Carna Biosciences, Inc
T4 sequence (P42685 whole entry): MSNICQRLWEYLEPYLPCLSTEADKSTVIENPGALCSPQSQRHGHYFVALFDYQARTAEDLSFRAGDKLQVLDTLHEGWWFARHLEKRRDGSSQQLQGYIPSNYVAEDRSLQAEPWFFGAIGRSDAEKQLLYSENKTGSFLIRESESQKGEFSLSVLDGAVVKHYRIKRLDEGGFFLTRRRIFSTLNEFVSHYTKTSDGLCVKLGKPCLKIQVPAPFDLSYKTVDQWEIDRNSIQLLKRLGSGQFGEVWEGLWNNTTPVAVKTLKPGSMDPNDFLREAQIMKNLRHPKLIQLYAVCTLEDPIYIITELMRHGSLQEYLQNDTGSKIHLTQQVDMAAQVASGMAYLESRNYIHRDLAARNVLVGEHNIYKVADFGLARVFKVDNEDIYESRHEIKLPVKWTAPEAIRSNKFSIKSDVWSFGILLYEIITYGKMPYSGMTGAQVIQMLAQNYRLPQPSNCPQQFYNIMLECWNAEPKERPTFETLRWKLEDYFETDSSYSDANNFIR

PDGFRβ = molecular target: T5, PDGFRβ (Homo sapiens, UniProt P09619); assay: Off-chip Mobility Shift Assay, kinase inhibition; type: biochemical; settings: recombinant PDGFRβ; for inhibition at 0.001 µM: at 1 nM; for inhibition at 0.01 µM: at 10 nM, read-out: inhibition
T5 construct: purchased Carna Biosciences, Inc
T5 sequence (P09619 33-1106): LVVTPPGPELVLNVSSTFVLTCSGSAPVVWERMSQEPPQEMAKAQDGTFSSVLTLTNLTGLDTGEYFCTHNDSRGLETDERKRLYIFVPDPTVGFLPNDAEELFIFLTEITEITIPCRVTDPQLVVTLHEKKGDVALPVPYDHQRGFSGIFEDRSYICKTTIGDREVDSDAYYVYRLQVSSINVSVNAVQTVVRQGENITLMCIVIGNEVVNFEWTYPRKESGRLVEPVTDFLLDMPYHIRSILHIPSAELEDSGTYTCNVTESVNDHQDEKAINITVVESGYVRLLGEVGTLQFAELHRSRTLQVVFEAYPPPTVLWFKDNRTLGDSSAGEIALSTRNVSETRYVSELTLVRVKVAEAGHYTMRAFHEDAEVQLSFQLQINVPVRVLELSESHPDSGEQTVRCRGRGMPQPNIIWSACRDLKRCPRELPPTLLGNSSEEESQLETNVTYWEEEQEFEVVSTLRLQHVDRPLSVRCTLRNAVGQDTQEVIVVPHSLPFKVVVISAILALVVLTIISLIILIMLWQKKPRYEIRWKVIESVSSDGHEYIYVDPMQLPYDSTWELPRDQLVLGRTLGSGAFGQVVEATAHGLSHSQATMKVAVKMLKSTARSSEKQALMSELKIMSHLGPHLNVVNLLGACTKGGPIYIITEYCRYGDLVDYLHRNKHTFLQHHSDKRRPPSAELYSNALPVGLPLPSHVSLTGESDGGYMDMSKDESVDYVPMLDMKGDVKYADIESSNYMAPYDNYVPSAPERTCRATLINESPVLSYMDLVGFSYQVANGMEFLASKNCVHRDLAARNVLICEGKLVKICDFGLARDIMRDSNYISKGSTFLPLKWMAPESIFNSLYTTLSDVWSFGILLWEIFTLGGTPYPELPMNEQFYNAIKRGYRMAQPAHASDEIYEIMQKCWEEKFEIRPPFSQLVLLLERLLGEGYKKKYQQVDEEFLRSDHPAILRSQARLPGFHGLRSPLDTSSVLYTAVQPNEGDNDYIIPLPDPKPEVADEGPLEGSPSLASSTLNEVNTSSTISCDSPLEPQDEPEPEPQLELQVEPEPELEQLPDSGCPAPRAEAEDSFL

SRC = molecular target: T6, SRC (Homo sapiens, UniProt P12931); assay: Off-chip Mobility Shift Assay, kinase inhibition; type: biochemical; settings: recombinant SRC; for inhibition at 0.001 µM: at 1 nM; for inhibition at 0.01 µM: at 10 nM
T6 construct: purchased Carna Biosciences, Inc
T6 sequence (P12931 whole entry): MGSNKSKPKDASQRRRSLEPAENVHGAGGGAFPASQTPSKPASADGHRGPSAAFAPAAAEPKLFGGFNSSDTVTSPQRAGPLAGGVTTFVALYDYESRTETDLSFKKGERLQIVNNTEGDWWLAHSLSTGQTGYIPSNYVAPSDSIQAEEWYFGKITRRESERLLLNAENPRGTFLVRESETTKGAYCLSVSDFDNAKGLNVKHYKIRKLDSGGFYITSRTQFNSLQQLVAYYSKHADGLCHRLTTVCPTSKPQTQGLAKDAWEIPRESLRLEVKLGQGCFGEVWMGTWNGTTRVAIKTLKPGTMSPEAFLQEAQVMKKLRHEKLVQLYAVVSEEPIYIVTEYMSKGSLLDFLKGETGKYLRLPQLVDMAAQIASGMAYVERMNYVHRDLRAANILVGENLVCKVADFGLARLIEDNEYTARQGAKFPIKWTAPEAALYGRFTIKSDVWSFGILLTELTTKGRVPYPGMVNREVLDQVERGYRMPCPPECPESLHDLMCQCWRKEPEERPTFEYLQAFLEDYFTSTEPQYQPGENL

YES = molecular target: T7, YES (Homo sapiens, UniProt P07947); assay: Off-chip Mobility Shift Assay, kinase inhibition; type: biochemical; settings: recombinant YES; for inhibition at 0.001 µM: at 1 nM; for inhibition at 0.01 µM: at 10 nM
T7 construct: purchased Carna Biosciences, Inc
T7 sequence (P07947 whole entry): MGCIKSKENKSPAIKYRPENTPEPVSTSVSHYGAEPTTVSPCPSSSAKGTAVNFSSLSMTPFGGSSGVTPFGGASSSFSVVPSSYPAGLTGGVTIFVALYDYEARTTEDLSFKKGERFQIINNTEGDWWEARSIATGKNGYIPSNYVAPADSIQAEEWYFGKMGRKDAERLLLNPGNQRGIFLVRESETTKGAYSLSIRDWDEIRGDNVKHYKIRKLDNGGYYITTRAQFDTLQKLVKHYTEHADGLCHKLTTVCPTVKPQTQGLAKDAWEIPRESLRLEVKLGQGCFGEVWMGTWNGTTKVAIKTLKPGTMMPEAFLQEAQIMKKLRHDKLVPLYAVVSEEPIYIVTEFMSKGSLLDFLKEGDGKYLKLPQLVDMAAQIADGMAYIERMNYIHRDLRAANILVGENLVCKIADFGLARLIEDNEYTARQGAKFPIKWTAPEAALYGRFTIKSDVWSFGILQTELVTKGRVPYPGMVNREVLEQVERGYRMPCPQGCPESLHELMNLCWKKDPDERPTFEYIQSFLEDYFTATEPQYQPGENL

Mino = assay: Cell inhibition assay (PrestoBlue, 48 h); type: cell-based; settings: Homo sapiens, Mino cells, read-out: IC50, inhibition of growth
[1] = Metabolic stability in human liver microsomes; type: in vitro ADME; settings: human liver microsomes
Method: FIG. 1. Metabolic stability of compounds in human liver microsomal incubations. […] Concentrations at specified times were determined by LC-MS/MS.
The incubation reactions at various time points were quenched by adding 2× volumes of acetonitrile containing 100 nM reserpine. The quenched incubation samples were centrifuged at 4000 RPM for 10 min, and the supernatants injected for LC/MS/MS analysis. LC/MS/MS analysis was carried out on a AB Sciex 4000 Q Trap LC/MS/MS system coupled with Shimadzu Prominence UFLCXR 20 series (including a CBM-20A controller, two LC-20ADXR solvent delivery units, SIL-20AC HT autosampler, CTO-20A column oven, and a SPD-20A UV detector).

TEC = molecular target: T8, TEC (Homo sapiens, UniProt P42680); assay: Off-chip Mobility Shift Assay, kinase inhibition; type: biochemical; settings: at 1 nM; recombinant TEC
T8 construct: purchased Carna Biosciences, Inc
T8 sequence (P42680 1-631): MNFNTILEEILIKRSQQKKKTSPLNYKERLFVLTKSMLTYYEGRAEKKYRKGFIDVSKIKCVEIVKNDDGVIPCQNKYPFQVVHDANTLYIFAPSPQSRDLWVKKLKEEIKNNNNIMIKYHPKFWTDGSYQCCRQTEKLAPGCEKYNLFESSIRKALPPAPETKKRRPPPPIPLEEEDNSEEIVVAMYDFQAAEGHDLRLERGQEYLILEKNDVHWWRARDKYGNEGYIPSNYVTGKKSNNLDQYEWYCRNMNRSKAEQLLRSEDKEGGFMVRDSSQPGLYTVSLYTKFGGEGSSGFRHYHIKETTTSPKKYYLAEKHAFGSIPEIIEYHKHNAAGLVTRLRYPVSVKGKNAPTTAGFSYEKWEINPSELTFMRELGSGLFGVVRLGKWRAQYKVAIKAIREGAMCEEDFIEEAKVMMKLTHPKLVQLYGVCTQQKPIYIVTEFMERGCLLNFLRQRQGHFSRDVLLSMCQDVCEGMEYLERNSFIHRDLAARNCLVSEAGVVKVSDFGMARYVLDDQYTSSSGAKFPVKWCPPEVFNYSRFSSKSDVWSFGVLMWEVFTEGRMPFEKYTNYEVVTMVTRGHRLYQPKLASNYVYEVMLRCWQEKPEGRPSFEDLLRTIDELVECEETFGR

T1 sequence (P00519 whole entry E255K): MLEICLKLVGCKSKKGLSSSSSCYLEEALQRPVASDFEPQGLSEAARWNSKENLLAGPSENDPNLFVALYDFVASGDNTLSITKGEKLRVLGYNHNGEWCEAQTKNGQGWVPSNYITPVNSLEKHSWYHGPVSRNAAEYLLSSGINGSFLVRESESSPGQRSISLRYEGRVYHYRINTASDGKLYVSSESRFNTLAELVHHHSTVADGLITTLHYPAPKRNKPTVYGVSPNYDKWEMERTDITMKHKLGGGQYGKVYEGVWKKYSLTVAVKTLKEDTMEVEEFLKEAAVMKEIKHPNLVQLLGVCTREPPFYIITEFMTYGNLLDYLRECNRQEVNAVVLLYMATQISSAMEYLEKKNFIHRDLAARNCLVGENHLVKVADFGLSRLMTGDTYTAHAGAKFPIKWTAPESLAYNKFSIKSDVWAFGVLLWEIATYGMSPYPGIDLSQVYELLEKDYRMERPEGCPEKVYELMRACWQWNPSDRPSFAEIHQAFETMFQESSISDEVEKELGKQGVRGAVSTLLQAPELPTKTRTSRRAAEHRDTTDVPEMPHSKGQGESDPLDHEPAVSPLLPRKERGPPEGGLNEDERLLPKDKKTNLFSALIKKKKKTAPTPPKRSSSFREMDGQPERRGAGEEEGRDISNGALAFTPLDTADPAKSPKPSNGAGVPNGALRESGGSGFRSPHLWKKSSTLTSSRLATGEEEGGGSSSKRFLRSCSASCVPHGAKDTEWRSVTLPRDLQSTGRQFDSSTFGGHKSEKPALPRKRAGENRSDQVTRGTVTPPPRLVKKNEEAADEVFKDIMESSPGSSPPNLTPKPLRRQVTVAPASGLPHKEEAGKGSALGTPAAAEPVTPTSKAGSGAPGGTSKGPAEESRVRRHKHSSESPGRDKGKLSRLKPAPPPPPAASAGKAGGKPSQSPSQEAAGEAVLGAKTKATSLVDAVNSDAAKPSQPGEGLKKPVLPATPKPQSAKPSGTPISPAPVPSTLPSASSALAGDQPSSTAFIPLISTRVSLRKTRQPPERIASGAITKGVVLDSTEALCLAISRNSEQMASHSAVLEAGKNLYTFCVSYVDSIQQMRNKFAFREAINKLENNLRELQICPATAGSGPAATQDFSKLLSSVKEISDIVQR

| Structure (SMILES) | inhibition at 0.001 µM (ABL(E255K)) [%] | inhibition at 0.01 µM (ABL(E255K)) [%] | inhibition at 0.001 µM (DDR2; at 1 nM) [%] | inhibition at 0.01 µM (DDR2) [%] | inhibition at 0.001 µM (FGR) [%] | inhibition at 0.01 µM (FGR) [%] | inhibition at 0.001 µM (FRK) [%] | inhibition at 0.01 µM (FRK) [%] | inhibition at 0.001 µM (PDGFRβ) [%] | inhibition at 0.01 µM (PDGFRβ) [%] | inhibition at 0.001 µM (SRC) [%] | inhibition at 0.01 µM (SRC) [%] | inhibition at 0.001 µM (YES) [%] | inhibition at 0.01 µM (YES) [%] | metabolic stability compared to dasatinib [1] | inhibition at 0.001 µM (TEC) [%] | inhibition at 0.1 µM (PDGFRβ; at 100 nM) [%] | IC50 (Mino) [nM] |
| --- | --- | --- | --- | --- | --- | --- | --- | --- | --- | --- | --- | --- | --- | --- | --- | --- | --- | --- |
| [2H]c1cc(C)c(NC(=O)c2cnc(Nc3cc(N4CCCCC4)nc(C)n3)s2)c(Cl)c1 [Compound I, N-(2-chloro-4-deuterio-6-methyl-phenyl)-2-[[2-methyl-6-(1-piperidyl)pyrimidin-4-yl]amino]thiazole-5-carboxamide] | > 50 | > 50 | > 50 | > 50 | > 50 | > 50 | > 50 | > 50 | > 50 | > 50 | > 50 | > 50 | > 50 | > 50 | significantly greater stability |  |  | < 50 |
| Cc1nc(Nc2ncc(C(=O)Nc3c(C)cccc3Cl)s2)cc(N2CC[C@@H](N)C2)n1 [Compound XIII, N-(2-chloro-6-methylphenyl)-2-[[2-methyl-6-((R)-3-aminopyrrolidin-1-yl)pyrimidin-4-yl]amino]thiazole-5-carboxamide] | > 50 | > 50 |  | > 50 |  | > 50 |  | > 50 |  | > 50 | > 50 | > 50 | > 50 | > 50 | significantly greater stability | > 50 |  | < 50 |
| [2H]c1cc(C)c(NC(=O)c2cnc(Nc3cc(N4CC[C@H](N)C4)nc(C)n3)s2)c(Cl)c1 [Compound VI, N-(2-chloro-4-dutero-6-methylphenyl)-2-[[2-methyl-6-((S)-3-aminopyrrolidin-1-yl)pyrimidin-4-yl]amino]thiazole-5-carboxamide] | > 50 | > 50 |  | > 50 |  | > 50 |  | > 50 |  | > 50 | > 50 | > 50 | > 50 | > 50 | significantly greater stability | > 50 |  | < 50 |
| Cc1nc(Nc2ncc(C(=O)Nc3c(C)cccc3Cl)s2)cc(N2CCCCC2)n1 [Compound VIII, N-(2-chloro-6-methylphenyl)-2-[[2-methyl-6-(piperidin-1-yl)pyrimidin-4-yl]amino]thiazole-5-carboxamide] | > 50 | > 50 |  | > 50 |  | > 50 |  | > 50 |  | > 50 | > 50 | > 50 | > 50 | > 50 | significantly greater stability | > 50 |  | < 50 |
| [2H]c1cc(C)c(NC(=O)c2cnc(Nc3cc(N4CC[C@@H](N)C4)nc(C)n3)s2)c(Cl)c1 [Compound VII, N-(2-chloro-4-deutero-6-methylphenyl)-2-[[2-methyl-6-((R)-3-aminopyrrolidin-1-yl)pyrimidin-4-yl]amino]thiazole-5-carboxamide] | > 50 | > 50 |  | > 50 |  | > 50 |  | > 50 |  | > 50 | > 50 | > 50 | > 50 | > 50 | significantly greater stability | > 50 |  | < 50 |

Second part, led by results:

| inhibition at 0.001 µM (ABL(E255K)) [%] | inhibition at 0.01 µM (ABL(E255K)) [%] | inhibition at 0.001 µM (DDR2; at 1 nM) [%] | inhibition at 0.01 µM (DDR2) [%] | inhibition at 0.001 µM (FGR) [%] | inhibition at 0.01 µM (FGR) [%] | inhibition at 0.001 µM (FRK) [%] | inhibition at 0.01 µM (FRK) [%] | inhibition at 0.001 µM (PDGFRβ) [%] | inhibition at 0.01 µM (PDGFRβ) [%] | inhibition at 0.001 µM (SRC) [%] | inhibition at 0.01 µM (SRC) [%] | inhibition at 0.001 µM (YES) [%] | inhibition at 0.01 µM (YES) [%] | metabolic stability compared to dasatinib [1] | inhibition at 0.001 µM (TEC) [%] | inhibition at 0.1 µM (PDGFRβ; at 100 nM) [%] | Structure (SMILES) | IC50 (Mino) [nM] |
| --- | --- | --- | --- | --- | --- | --- | --- | --- | --- | --- | --- | --- | --- | --- | --- | --- | --- | --- |
| > 50 | > 50 |  | > 50 | > 50 | > 50 | > 50 | > 50 | < 50 | > 50 | > 50 | > 50 | > 50 | > 50 |  | > 50 | > 50 | [2H]c1cc(C)c(NC(=O)c2cnc(Nc3cc(N4CCC(O)CC4)nc(C)n3)s2)c(Cl)c1 [Compound II, N-(2-chloro-4-deuterio-6-methyl-phenyl)-2-[[6-(4-hydroxy-1-piperidyl)-2-methyl-pyrimidin-4-yl]amino]thiazole-5-carboxamide] | < 50 |
| > 50 | > 50 |  | > 50 |  | > 50 |  | > 50 |  | > 50 | > 50 | > 50 | > 50 | > 50 |  | > 50 |  | Cc1nc(Nc2ncc(C(=O)Nc3c(C)cccc3Cl)s2)cc(N2CCC(O)CC2)n1 [Compound IX, N-(2-chloro-6-methylphenyl)-2-[[2-methyl-6-(4-hydroxypiperidin-1-yl)pyrimidin-4-yl]amino]thiazole-5-carboxamide] | < 50 |
| > 50 | > 50 |  | > 50 |  | > 50 |  | > 50 |  | > 50 | > 50 | > 50 | > 50 | > 50 | significantly greater stability | > 50 |  | Cc1nc(Nc2ncc(C(=O)Nc3c(C)cccc3Cl)s2)cc(N2CC[C@H](N)C2)n1 [Compound XII, N-(2-chloro-6-methylphenyl)-2-[[2-methyl-6-((S)-3-aminopyrrolidin-1-yl)pyrimidin-4-yl]amino]thiazole-5-carboxamide] | < 50 |
